In patent US12145927B2 (BRISTOL-MYERS SQUIBB COMPANY, priority 2018, dated 2024):

The molecules below were run against T1, human IDO1 (Homo sapiens, UniProt P14902) (assay: IDO inhibition assay in human IDO1/HEK293 cells (IDO1 HEK Human)). Settings: HEK293 cells stably expressing human IDO1; 20 hours incubation; absorbance at 490 nm after Ehrlich reagent.
T1 construct: expressed in transfected cells
Assay type: cell-based
Protocol: HEK293 cells were transfected with a pCDNA-based mammalian expression vector harboring human IDO1 cDNA (NM 002164.2) by electroporation. They were cultured in medium (DMEM with 10% FBS) containing 1 mg/ml G418 for two weeks. Clones of HEK293 cells that stably expressed human IDO1 protein were selected and expanded for IDO inhibition assay.
The human IDO1/HEK293 cells were seeded at 10,000 cells per 50 μL per well with RPMI/phenol red free media contains 10% FBS in a 384-well black wall clear bottom tissue culture plate (Matrix Technologies LLC) 100 nL of certain concentration of compound was then added to each well using ECHO liquid handling systems. The cells were incubated for 20 hours in 37° C. incubator with 5% CO2.
The compound treatments were stopped by adding trichloroacetic acid (Sigma-Aldrich) to a final concentration at 0.2%. The cell plate was further incubated at 50° C. for 30 minute. The equal volume supernatant (20 μL) and 0.2% (w/v) Ehrlich reagent (4-dimethylaminobenzaldehyde, Sigma-Aldrich) in glacial acetic acid were mixed in a new clear bottom 384-well plate. This plate was then incubated at RT for 30 minute. The absorbance at 490 nm was measured on Envision plate reader.
Compound IC50 values were calculated using the counts of 500 nM of a reference standard treatment as one hundred percent inhibition, and counts of no compound but DMSO treatment as zero percent inhibition.

T1 sequence (P14902 whole entry): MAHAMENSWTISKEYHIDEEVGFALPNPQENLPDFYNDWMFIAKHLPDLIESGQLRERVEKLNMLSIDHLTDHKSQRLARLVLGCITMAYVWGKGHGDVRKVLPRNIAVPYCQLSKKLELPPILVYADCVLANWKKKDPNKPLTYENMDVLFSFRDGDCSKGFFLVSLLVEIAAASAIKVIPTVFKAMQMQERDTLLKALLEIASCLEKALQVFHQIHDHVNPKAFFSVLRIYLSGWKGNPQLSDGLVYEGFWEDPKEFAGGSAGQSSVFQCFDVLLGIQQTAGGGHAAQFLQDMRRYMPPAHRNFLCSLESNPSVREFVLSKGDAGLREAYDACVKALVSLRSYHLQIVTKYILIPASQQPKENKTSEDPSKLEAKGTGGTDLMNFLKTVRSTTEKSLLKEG

With `Cc1ccc(NC(=O)Nc2cc(-c3ccccc3-c3nnn[nH]3)cc3c2OCCC(C)C3C)cc1` (mixture of isomers) [Example 69, 1-(7-(2-(1H-tetrazol-5-yl)phenyl)-4,5-dimethyl-2,3,4,5-tetrahydrobenzo[b]oxepin-9-yl)-3-(p-tolyl)urea] as the molecule, how does the IC50 read?
The IC50 was 14.6 nM.

How did the IC50 turn out when `Cc1ccc(NC(=O)Nc2cc(-c3ccccc3-c3nnn[nH]3)cc3c2OCC(O)C(O)C3c2ccccc2)cc1` (racemic) [9 (Rac.), 1-(7-(2-(1H-tetrazol-5-yl)phenyl)-3,4-dihydroxy-5-phenyl-2,3,4,5-tetrahydrobenzo[b]oxepin-9-yl)-3-(p-tolyl)urea] was run?
The IC50 was 1040 nM.

How did the IC50 turn out when `Cc1ccc(CC(=O)Nc2cc(-c3ccccc3-c3nnn[nH]3)cc3c2OCCCC3C(C)C)cc1` (racemic) [25 (Rac), N-(7-(2-(1H-tetrazol-5-yl)phenyl)-5-isopropyl-2,3,4,5-tetrahydrobenzo[b]oxepin-9-yl)-2-(p-tolyl)acetamide] was run?
The IC50 was 29.9 nM.

How did the IC50 turn out when `Cc1ccc(CC(=O)Nc2cc(-c3ccccc3-c3nnn[nH]3)cc3c2OCCCC3C2CC2)cc1` (racemic) [37 (Rac), N-(7-(2-(1H-tetrazol-5-yl)phenyl)-5-cyclopropyl-2,3,4,5-tetrahydrobenzo[b]oxepin-9-yl)-2-(p-tolyl)acetamide] was run?
Its IC50 is 117 nM.

How did the IC50 turn out when `Cc1cnc(Nc2cc(-c3ccccc3-c3nnn[nH]3)cc3c2OCCCC3c2ccccc2)nc1` (racemic) [55 (Rac), N-(7-(2-(1H-tetrazol-5-yl)phenyl)-5-phenyl-2,3,4,5-tetrahydrobenzo[b]oxepin-9-yl)-5-methylpyrimidin-2-amine] was run?
The IC50 was 155 nM.

How did the IC50 turn out when `Cc1ccc(CC(=O)Nc2cc(-c3ccccc3-c3nnn[nH]3)cc3c2OCCCC3c2ccccc2)cc1` (racemic) [Example 2-1, N-(7-(2-(1H-tetrazol-5-yl)phenyl)-5-phenyl-2,3,4,5-tetrahydrobenzo[b]oxepin-9-yl)-2-(p-tolyl)acetamide] was run?
Its IC50 is 98.2 nM.

Which IC50 does the source give for `Cc1ccc(NC(=O)Nc2cc(-c3ccccc3C(=O)O)cc3c2OCCCC3c2ccccc2)cc1` (racemic) [Example 8-1, 2-(5-phenyl-9-(3-(p-tolyl)ureido)-2,3,4,5-tetrahydrobenzo[b]oxepin-7-yl)benzoic acid] here?
The IC50 was 27.2 nM.

Which IC50 does the source give for `Cc1ccc(NC(=O)Nc2cc(-c3ccccc3-c3nnn[nH]3)cc3c2OCCCC3C(C)C)cc1` (racemic) [Example 24, 1-(7-(2-(1H-tetrazol-5-yl)phenyl)-5-isopropyl-2,3,4,5-tetrahydrobenzo[b]oxepin-9-yl)-3-(p-tolyl)urea] here?
Its IC50 is 4.4 nM.

With `Cc1ccc(NC(=O)Nc2cc(-c3ccccc3-c3nnn[nH]3)cc3c2OCCCC3C2CC2)cc1` (racemic) [Example 36, 1-(7-(2-(1H-tetrazol-5-yl)phenyl)-5-cyclopropyl-2,3,4,5-tetrahydrobenzo[b]oxepin-9-yl)-3-(p-tolyl)urea] as the molecule, how does the IC50 read?
Its IC50 is 7.6 nM.

How did the IC50 turn out when `c1ccc(C2CCCOc3c(Nc4nc5ccccc5o4)cc(-c4ccccc4-c4nnn[nH]4)cc32)cc1` (racemic) [Example 53, N-(7-(2-(1H-tetrazol-5-yl)phenyl)-5-phenyl-2,3,4,5-tetrahydrobenzo[b]oxepin-9-yl) benzo[d] oxazol-2-amine] was run?
Its IC50 is 4.2 nM.

How did the IC50 turn out when `C=C[C@H]1Oc2c(NC(=O)Nc3ccc(C)cc3)cc(-c3ccccc3-c3nnn[nH]3)cc2[C@@H]1c1ccccc1` (racemic) [Example 85, (+/−)-1-((trans)-5-(2-(1H-tetrazol-5-yl)phenyl)-3-phenyl-2-vinyl-2,3-dihydrobenzofuran-7-yl)-3-(p-tolyl)urea] was run?
Its IC50 is 32 nM.

`C=C[C@@H]1Oc2c(NC(=O)Nc3ccc(C)cc3)cc(-c3ccccc3-c3nn[nH]n3)cc2[C@@H]1c1ccccc1` (racemic) [Example 86, (+/−)-1-((cis)-5-(2-(1H-tetrazol-5-yl)phenyl)-3-phenyl-2-vinyl-2,3-dihydrobenzofuran-7-yl)-3-(p-tolyl)urea] was tested. Which IC50 did it give?
The IC50 was 12 nM.

`CC[C@@H]1Oc2c(NC(=O)Nc3ccc(C)cc3)cc(-c3ccccc3-c3nnn[nH]3)cc2[C@H]1c1ccccc1` (racemic) [Example 90, (+/−)-1-((trans)-5-(2-(1H-tetrazol-5-yl)phenyl)-3-phenyl-2-ethyl-2,3-dihydrobenzofuran-7-yl)-3-(p-tolyl)urea] was tested. Which IC50 did it give?
The IC50 was 18 nM.

Which IC50 does the source give for `C=C[C@H]1Oc2c(NC(=O)Cc3ccc(C)cc3)cc(-c3ccccc3-c3nnn[nH]3)cc2[C@@H]1c1ccccc1` (racemic) [Example 91, (+/−)-N-((trans)-5-(2-(1H-tetrazol-5-yl)phenyl)-3-phenyl-2-vinyl-2,3-dihydrobenzofuran-7-yl)-2-(p-tolyl)acetamide] here?
Its IC50 is 89 nM.

With `C=C(C)[C@H]1Oc2c(NC(=O)Nc3ccc(C)cc3)cc(-c3ccccc3-c3nnn[nH]3)cc2[C@@H]1c1ccccc1` (racemic) [Example 93, (+/−)-1-((trans)-5-(2-(1H-tetrazol-5-yl)phenyl)-3-phenyl-2-(prop-1-en-2-yl)-2,3-dihydrobenzofuran-7-yl)-3-(p-tolyl)urea] as the molecule, how does the IC50 read?
The IC50 was 9.1 nM.

How did the IC50 turn out when `C=C[C@H]1Oc2c(NC(=O)Nc3ccc(C)cc3)cc(-c3ccccc3-c3nnn[nH]3)cc2[C@@H]1CCC(F)(F)F` (racemic) [Example 94, (+/−)-1-((trans)-5-(2-(1H-tetrazol-5-yl)phenyl)-3-(3,3,3-trifluoropropyl)-2-vinyl-2,3-dihydrobenzofuran-7-yl)-3-(p-tolyl)urea] was run?
Its IC50 is 19 nM.

How did the IC50 turn out when `C=CC1Oc2c(NC(=O)Nc3ccccc3F)cc(-c3ccccc3-c3nnn[nH]3)cc2C1c1ccccc1` (racemic) [Example 95] was run?
Its IC50 is 88 nM.

`C=C(C)C1Oc2c(NC(=O)Nc3ccc(C)cc3)cc(-c3ccccc3C(=O)O)cc2C1c1ccccc1` (racemic) [Example 96] was tested. Which IC50 did it give?
Its IC50 is 26 nM.

With `C=C(C)C1Oc2c(NC(=O)Nc3ccc(C)cc3)cc(-c3ccc(OC)c(C(=O)O)c3)cc2C1c1ccccc1` (racemic) [Example 97] as the molecule, how does the IC50 read?
Its IC50 is 1800 nM.

With `C=CC1Oc2c(NC(=O)Nc3ccc(C)cc3)cc(-c3cc(F)ccc3C(=O)O)cc2C1c1ccccc1` (racemic) [Example 98] as the molecule, how does the IC50 read?
Its IC50 is 87 nM.

`C=CC1Oc2c(NC(=O)Nc3ccc(CC)cc3)cc(-c3ccccc3-c3nnn[nH]3)cc2C1CCC(F)(F)F` (racemic) [Example 99] was tested. Which IC50 did it give?
The IC50 was 5.6 nM.

How did the IC50 turn out when `CCC1Oc2c(NC(=O)Nc3ccc(C)cc3)cc(-c3ccccc3-c3nnn[nH]3)cc2C1CCC(F)(F)F` (racemic) [Example 102] was run?
Its IC50 is 13 nM.

With `Cc1ccc(NC(=O)Nc2cc(-c3ccccc3-c3nnn[nH]3)cc3c2OC(C(C)C)C3c2ccccc2)cc1` (racemic) [Example 103] as the molecule, how does the IC50 read?
The IC50 was 11 nM.

Which IC50 does the source give for `Cc1ccc(NC(=O)Nc2cc(C(C)CC(=O)O)cc3c2O[C@H](C2CC2)[C@H]3c2ccccc2)cc1` (mixture of isomers) [Example 111, rac-3-((2R,3S)-2-cyclopropyl-3-phenyl-7-(3-(p-tolyl)ureido)-2,3-dihydrobenzofuran-5-yl)butanoic acid] here?
Its IC50 is 1400 nM.

For `C=CC1Oc2c(NC(=O)Nc3ccc(C)cc3)cc(C3(c4nnn[nH]4)CC3)cc2C1c1ccccc1` (racemic) [Example 112, (+/−)1-(5-(1-(1H-tetrazol-5-yl)cyclopropyl)-3-phenyl-2-vinyl-2,3-dihydrobenzofuran-7-yl)-3-(p-tolyl)urea], which IC50 is on record?
Its IC50 is 7900 nM.

How did the IC50 turn out when `Cc1ccc(NC(=O)Nc2cc(-c3ccccc3-c3nnn[nH]3)cc3c2OC(C)(C)C3c2ccccc2)cc1` (racemic) [Example 123, (±)-1-(5-(2-(1H-Tetrazol-5-yl)phenyl)-2,2-dimethyl-3-phenyl-2,3-dihydrobenzofuran-7-yl)-3-(p-tolyl)urea] was run?
The IC50 was 6.3 nM.

`Cc1ccc(NC(=O)Nc2cc(-c3ccccc3C(=O)O)cc3c2OC(C)(C)C3c2ccccc2)cc1` (racemic) [Example 124, (±)-2-(2,2-Dimethyl-3-phenyl-7-(3-(p-tolyl)ureido)-2,3-dihydrobenzofuran-5-yl) benzoic acid] was tested. Which IC50 did it give?
The IC50 was 77 nM.

With `CC1(C)Oc2c(NC(=O)Nc3ccccc3F)cc(-c3ccccc3-c3nnn[nH]3)cc2C1c1ccccc1` (racemic) [Example 125, (±)-1-(5-(2-(1H-Tetrazol-5-yl)phenyl)-2,2-dimethyl-3-phenyl-2,3-dihydrobenzofuran-7-yl)-3-(2-fluorophenyl)urea] as the molecule, how does the IC50 read?
The IC50 was 92 nM.

How did the IC50 turn out when `CC1(C)Oc2c(NC(=O)Nc3ccccc3F)cc(-c3ccccc3C(=O)O)cc2C1c1ccccc1` (racemic) [Example 126, (±)-2-(7-(3-(2-Fluorophenyl)ureido)-2,2-dimethyl-3-phenyl-2,3-dihydrobenzofuran-5-yl)benzoic acid] was run?
Its IC50 is 310 nM.

`CC1(C)Oc2c(NC(=O)Nc3ccc(C(F)(F)F)nc3)cc(-c3ccccc3-c3nnn[nH]3)cc2C1c1ccccc1` (racemic) [Example 127, (±)-1-(5-(2-(1H-Tetrazol-5-yl)phenyl)-2,2-dimethyl-3-phenyl-2,3-dihydrobenzofuran-7-yl)-3-(6-(trifluoromethyl)pyridin-3-yl)urea] was tested. Which IC50 did it give?
The IC50 was 2100 nM.

How did the IC50 turn out when `CC1(C)Oc2c(NC(=O)Nc3ccc(C(F)(F)F)nc3)cc(-c3ccccc3C(=O)O)cc2C1c1ccccc1` (racemic) [Example 128, (±)-2-(2,2-Dimethyl-3-phenyl-7-(3-(6-(trifluoromethyl)pyridin-3-yl)ureido)-2,3-dihydrobenzofuran-5-yl)benzoic acid] was run?
The IC50 was 2300 nM.

`Cc1ccc(NC(=O)Nc2cc(-c3ccccc3-c3nnn[nH]3)cc3c2OCCC3c2ccccc2)cc1` (racemic) [Example 132, (+/−)-1-(6-(2-(2H-tetrazol-5-yl)phenyl)-4-phenylchroman-8-yl)-3-(p-tolyl)urea] was tested. Which IC50 did it give?
The IC50 was 21.2 nM.
